Values quoted from earlier work, collected in US6645974B2, “Androgen receptor modulators and methods for use thereof” (Merck & Co., Inc., priority 2001, dated 2003).
Structures can show the parent of a compound that is named as a salt.

Key:
[1] = after 7 years of treatment
[2] = postmenopausal osteoporotic women, median of 22 months of treatment

Row | Compound | increase in spinal BMD [1] | reduction in nonvertebral fractures [2] | reduction in spine fractures [2]
1 | NCCCC(O)(P(=O)(O)O)P(=O)(O)O [alendronate, 4-amino-1-hydroxybutylidene-1,1-bisphosphonic acid monosodium salt, trihydrate] | ≤ 11% | – | –
2 | hPTH(1-34): human parathyroid hormone 1-34 fragment (SVSEIQLMHNLGKHLNSMERVEWLRKKLQDVHNF; Parathyroid hormone; UniProt P01270 32-65, looked up, fragment) | – | 54% | ≥ 65%
